Assay results as given in a melting point compilation (Tetko et al.; mined from patent text by program, amines drawn as free bases though some values may be those of a salt).

Compound | melting point [°C]
Cn1c(=O)ccc2cnc(S(C)(=O)=O)nc21 | 194 to 196
CON1C=C(C)N=C(NC(=O)NS(=O)(=O)c2ccccc2C=CC(F)(F)F)N1 | 159 to 160
CN(C)C(=O)n1nc2cc(Cl)ccc2c1N | 178 to 180
CN(CCc1ccccc1)C1CCN(C(=O)Nc2ccccc2)CC1 | 105 to 107
O=C(C=Cc1ccccc1)Nc1ccccc1NC(=O)C=Cc1ccccc1 | 212
CNC(=O)NCCn1c(-c2ccc(CN3CCOCC3)cc2)csc1=Nc1ccc(F)c(C)c1 | 142 to 145
NC(=S)NN=Cc1ccc(N)cn1 | 205 to 207
COC(=O)/C=C/c1ccc(OC)cc1N | 149
Nc1ncnc2c1c(-c1cccc3[nH]ncc13)nn2Cc1oc2ccccc2c(=O)c1-c1ccccc1 | 248 to 252
CC(=O)Nc1nc(N)nc(NC2CC2)n1 | 190 to 195
C[Si](O)(Cn1cncn1)c1ccc(-c2ccccc2)cc1 (stereo not drawn) | 97 to 99
CC(C)c1nc2cc(NC(=O)OC(C)(C)C)ccn2n1 | 215 to 218
Cc1ccccc1C(=O)Nc1ccc(C(=O)N2CCS(=O)c3ccccc32)cc1 (stereo not drawn) | 240 to 241
Cc1cc2c(nc1C(O)c1ccccc1)CCCCC2 (stereo not drawn) | 130 to 132
Ic1nnnn1C1CCCC1 | 119
O=C1Nc2cccnc2N(C(=O)N2CCCCC2CCCCN2CCCCC2)c2ccccc21 (stereo not drawn) | 199 to 201
COC(=O)C(C(=O)C(C)C)=C(N)c1ccc(F)cc1 | 85.8 to 86.6
Cc1ccc2c(OS(=O)(=O)C(F)(F)F)cc(=O)oc2c1 | 95 to 96
COc1cc2c3c(c(=O)n(C)c2cc1OC)CNCC3 | 178 to 179
CC(=O)c1cncc(OC2SCC(O)C(O)C2O)c1 (stereo not drawn) | 209
CCNC(=O)N1CCc2cc(S(=O)(=O)N3CC(c4ccccc4)NC3=O)ccc21 (stereo not drawn) | 127
CC1(C(=O)O)COc2ccccc2O1 (stereo not drawn) | 125 to 130
CCn1c(=O)c2[nH]c(/C=C/c3cccc(F)c3C)nc2n(CC)c1=O | > 270
CCn1c(=O)c2c(nc(/C=C/c3ccc(OC)c(C)c3)n2C)n(CC)c1=O | 176 to 178

Compound | melting point [°C]
c1csc(C2=NCC3COCCN3c3cc4c(cc32)OCCO4)c1 (stereo not drawn) | 192 to 194
CC(c1cccnc1)N(c1ccc(F)cc1F)S(C)(=O)=O (stereo not drawn) | 76 to 78
Cc1cc(C(F)(C(F)(F)F)C(F)(F)F)ccc1NC(=O)c1ccnc(Cl)c1C(=O)NC(C)C | 275 to 277
Cc1noc(C)c1C(=O)Nc1ccc(-n2nc(C3CC3)cc2C2CC2)c(F)c1 | 166 to 168
CCCCCCC(C)(C)c1cc(O)c(C2=C(CCO)CCC(C)C2)c(O)c1 (stereo not drawn) | 83 to 86
CCC1CC2=C(CCC(=O)C2)C2CCC3(C)C(=CCC3O)C12 (stereo not drawn) | 102 to 105
On1c(-c2ccncc2)nc2ccc(Cn3ccnc3)cc21 | 198
Cc1ccc(CC(CNC(=O)C(C)c2ccc(NS(C)(=O)=O)c(F)c2)COC(=O)C(C)(C)C)cc1C (stereo not drawn) | 46 to 48
CN(O)C(=O)C(=Cc1ccc2ccccc2c1)c1ccc(Br)cc1 | 118 to 120
CC1=C(C(=O)OC(C)(C)C)C(c2ccc(C)cc2C)C(C(=O)OC(C)(C)C)=C(C)N1 | 197 to 198
O=C(CCl)Nc1cccc(C(=O)Cl)c1 | 106 to 108
CC(C)(C)OC(=O)n1cc(C(=O)C=C(O)C2(C(=O)O)C=CC=CC2)c2ccccc21 (stereo not drawn) | 138 to 141
COc1cc(-c2nc(N)sc2CCC2CCC(C)(C)CC2)c(OC)cc1C | 136 to 138
CCOC(=O)C(=CNc1nnc(N2CCOC(C)C2)s1)C(=O)OCC (stereo not drawn) | 89 to 91
Cc1ccc(C(=O)C=CN(C)C)s1 | 118 to 121
O=c1[nH]c2cc(Cl)cc(Cl)c2c(=O)n1Cc1cccc(Cl)c1 | 276 to 279
O=C(O)CC1(O)CCC(N2CCN(CCCNc3ccncc3)CC2)CC1 (stereo not drawn) | 242
COc1cc2c3c(c1O)-c1ccc(Cl)cc1CC3N(C)CC2 (stereo not drawn) | 155 to 157
CC(=O)N1c2ccccc2C[C@H]1C#N | 134 to 135
COC(C)COC(=O)Nc1ccc(C2=NNC(=O)CC2C)cc1 (stereo not drawn) | 173 to 175
Cc1nc2ccc(Cl)cc2nc1Cl | 194 to 196
C/C=C/CNC(=O)N1CC(Oc2ccc(C(F)(F)F)cc2)C1 | 157 to 158
Oc1ccc2c(c1)CC(O)C2 (stereo not drawn) | 112 to 115

Now from value to compound:

melting point [°C] | Compound
202 to 203 | COc1ccc(OC(=O)c2c3ccccc3nc3ccccc23)cc1
184 to 186 | CC(C)(C(=O)O)c1nc2ccc(NCCCN3CCN(C(c4ccccc4)c4ccccc4)CC3)nn2c1Cl
159 to 161 | Cc1ccc(C2(CNC(=O)Nc3c(C(C)C)cccc3C(C)C)CCCC2)cc1
204 to 207 | O=C(O)CN1C(=O)C(=Cc2ccc(OCc3ccccc3)c(OCc3ccccn3)c2)SC1=S
211 to 215 | CC1(C)CC(=O)Nc2ccc(-c3cccc(Cl)c3)cc21
177 to 179 | Cc1c(Sc2ccc(Cl)cc2)nn(-c2ccc(Cl)cc2)c(=O)c1C#N
105 to 106 | O=C(OCc1ccccc1)N1C(=O)[C@H](O)[C@@H]1c1ccccc1
65 to 66 | CCN(CC)CC(=O)Nc1ccc([N+](=O)[O-])cc1
> 300 | Nc1ccccc1-c1cc2[nH]c3ccccc3c2c2c1C(=O)NC2=O
193 | Cc1cccc(NC(=O)NCC(=O)N(CC(=O)N(C)c2ccccc2)c2ccccc2C)c1
245 to 247 | Cc1cc(Cc2ccc(C(=O)O)cc2)n(C)c1C(=O)c1ccc(Cl)cc1
193 | Cc1nnc2ccc(-c3cccc(N)c3)nn12
146 to 148 | COc1ccc(C2Sc3c(ccc4ccccc34)N(CCN(C)C)C(=O)C2OC(=O)c2ccc(O)c(O)c2)cc1 (stereo not drawn)
175 to 178 | Cc1ccc(S(=O)(=O)OCC2Cc3c[nH]c4cccc(c34)C(=O)N2)cc1 (stereo not drawn)
286 to 290 | CCCn1cc2c(C3C(=O)Nc4ccc(Br)cc43)nc(NCCCN(C)C)nc2n1 (stereo not drawn)
169 to 170 | CCOc1ccc(C(=O)CCC(=O)Nc2sc(-c3ccccc3)nc2-c2ccccc2)cc1
150 to 151 | CCOC(=O)C=Cc1ccc2cc(C=CC(=O)OCC)ccc2c1
169 to 170 | COc1ccnc(C(=O)N[C@H]2COC(=O)[C@H](Cc3ccccc3)[C@@H](OC(=O)C(C)C)[C@H](C)OC2=O)c1OCc1ccccc1
138 to 139 | Cn1cc(C(=O)c2ccccn2)cc1C(=O)c1ccc(Cl)cc1
120 to 122 | CCCc1c(OCCCOc2cccc(N)c2C#N)ccc(C(C)=O)c1O
232 | COCOc1ccc(-c2ncc3ncc(NC(=O)c4cccnc4)cc3n2)cc1
240 | CCCCc1nc2cc(Cl)c(Cl)c(C(=O)O)c2n1Cc1ccccc1Cl
149 to 153 | COC1=C(OC)C(=O)C2=C(CC(CCCCOc3ccc(C(=O)O)cc3)C2)C1=O
127 | COc1ccc(C=CC(=O)c2c(OC)cc(OC)cc2OC(=O)c2ccco2)cc1
125 to 127 | O=C(O)c1ccc(C#Cc2ccccc2)cc1OCc1ccccc1
50 to 51 | CCC(=O)C(CCCCCCOc1ccc(OC)cc1)C(=O)CC
